# Measurements reported in ChEMBL document CHEMBL1909046, “DrugMatrix in vitro pharmacology data”.
# Experiments:
# [1] = biological target: T1, Alpha-1A adrenergic receptor (Rattus norvegicus, UniProt P43140); assay: DRUGMATRIX: Alpha-1A adrenergic receptor radioligand binding (ligand: prazosin); format: cell membranes, Wistar, Submaxillary gland, Membrane; conditions: Not Active = under 50% inhibition at 10 µM
# T1 sequence (P43140 whole entry): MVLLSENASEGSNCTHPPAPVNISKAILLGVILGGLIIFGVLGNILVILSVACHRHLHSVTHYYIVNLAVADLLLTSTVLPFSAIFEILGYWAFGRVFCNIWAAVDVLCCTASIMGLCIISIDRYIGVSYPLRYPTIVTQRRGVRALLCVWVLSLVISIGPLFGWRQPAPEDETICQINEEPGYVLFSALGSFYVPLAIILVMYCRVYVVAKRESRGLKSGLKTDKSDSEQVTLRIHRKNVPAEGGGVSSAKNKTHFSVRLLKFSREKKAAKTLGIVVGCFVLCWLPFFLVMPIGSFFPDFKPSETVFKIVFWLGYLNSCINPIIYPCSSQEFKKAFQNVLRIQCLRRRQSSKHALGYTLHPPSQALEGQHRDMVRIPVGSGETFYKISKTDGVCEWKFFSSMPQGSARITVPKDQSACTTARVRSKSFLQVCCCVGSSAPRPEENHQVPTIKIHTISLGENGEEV
# [2] = biological target: T2, Cholecystokinin receptor type A (Homo sapiens, UniProt P32238); format: cell membranes, Membrane; conditions: 1321-n1; note: in other assays of this panel Not Active means under 50% inhibition at 10 µM
# T2 sequence (P32238 whole entry): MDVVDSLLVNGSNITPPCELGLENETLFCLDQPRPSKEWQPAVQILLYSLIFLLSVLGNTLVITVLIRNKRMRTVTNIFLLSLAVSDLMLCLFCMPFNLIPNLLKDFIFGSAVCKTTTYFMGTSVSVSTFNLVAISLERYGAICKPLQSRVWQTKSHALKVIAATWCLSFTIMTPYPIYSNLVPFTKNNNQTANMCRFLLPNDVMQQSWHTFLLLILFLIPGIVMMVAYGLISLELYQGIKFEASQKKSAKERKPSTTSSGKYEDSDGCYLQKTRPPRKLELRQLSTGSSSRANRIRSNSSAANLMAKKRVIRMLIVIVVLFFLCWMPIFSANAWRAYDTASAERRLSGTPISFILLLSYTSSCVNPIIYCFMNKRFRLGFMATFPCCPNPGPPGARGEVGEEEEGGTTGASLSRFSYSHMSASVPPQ
# Substance-K receptor = biological target: T3, Substance-K receptor (Homo sapiens, UniProt P21452); format: cell membranes, CHO, Membrane; note: in other assays of this panel Not Active means under 50% inhibition at 10 µM
# T3 sequence (P21452 whole entry): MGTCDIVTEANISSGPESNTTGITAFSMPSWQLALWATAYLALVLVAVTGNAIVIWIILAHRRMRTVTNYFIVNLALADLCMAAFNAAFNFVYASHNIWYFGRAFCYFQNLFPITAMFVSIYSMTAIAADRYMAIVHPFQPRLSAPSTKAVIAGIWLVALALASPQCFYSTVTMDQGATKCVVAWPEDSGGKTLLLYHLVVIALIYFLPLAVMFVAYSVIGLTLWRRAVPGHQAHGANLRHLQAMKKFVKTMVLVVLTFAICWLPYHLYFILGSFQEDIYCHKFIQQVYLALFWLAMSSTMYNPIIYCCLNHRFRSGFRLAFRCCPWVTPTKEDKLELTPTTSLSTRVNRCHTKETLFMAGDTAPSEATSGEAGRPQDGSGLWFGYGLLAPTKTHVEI
# [3] = DRUGMATRIX: GABAA, Chloride Channel, TBOB radioligand binding (ligand: [3H] TBOB); format: cell membranes, Rattus norvegicus, Wistar, Cerebral cortex, Membrane; conditions: Not Active = under 50% inhibition at 10 µM
# [4] = biological target: Platelet-activating factor receptor (Homo sapiens, UniProt P25105); format: tissue-based; note: in other assays of this panel Not Active means under 50% inhibition at 10 µM
# Platelet-activating factor receptor, sequence (P25105 whole entry): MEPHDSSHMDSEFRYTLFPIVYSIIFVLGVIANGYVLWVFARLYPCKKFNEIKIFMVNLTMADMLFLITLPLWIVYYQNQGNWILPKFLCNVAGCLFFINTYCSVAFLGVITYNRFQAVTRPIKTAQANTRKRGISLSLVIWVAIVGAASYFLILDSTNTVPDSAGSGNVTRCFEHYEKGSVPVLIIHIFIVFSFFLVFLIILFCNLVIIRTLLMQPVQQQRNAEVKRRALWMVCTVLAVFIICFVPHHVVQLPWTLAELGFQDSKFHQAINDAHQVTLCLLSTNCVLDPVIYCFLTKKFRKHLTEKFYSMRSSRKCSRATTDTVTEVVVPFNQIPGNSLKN
# [5] = DRUGMATRIX: Purinergic P2X radioligand binding (ligand: [3H] alpha, beta-Methylene-ATP); format: cell membranes, Oryctolagus cuniculus, New Zealand albino, Urinary bladder, Membrane; conditions: Not Active = under 50% inhibition at 10 µM
# [6] = biological target: T4, Polyunsaturated fatty acid lipoxygenase ALOX15 (Oryctolagus cuniculus, UniProt P12530); assay: biochemical; format: tissue-based, Reticulocytes; conditions: reticulocytes;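 note: inhibition of 15-lipoxygenase enzyme activity measured with linoleic acid as the substrate; in other assays of this panel Not Active means under 50% inhibition at 10 µM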
# T4 sequence (P12530 whole entry): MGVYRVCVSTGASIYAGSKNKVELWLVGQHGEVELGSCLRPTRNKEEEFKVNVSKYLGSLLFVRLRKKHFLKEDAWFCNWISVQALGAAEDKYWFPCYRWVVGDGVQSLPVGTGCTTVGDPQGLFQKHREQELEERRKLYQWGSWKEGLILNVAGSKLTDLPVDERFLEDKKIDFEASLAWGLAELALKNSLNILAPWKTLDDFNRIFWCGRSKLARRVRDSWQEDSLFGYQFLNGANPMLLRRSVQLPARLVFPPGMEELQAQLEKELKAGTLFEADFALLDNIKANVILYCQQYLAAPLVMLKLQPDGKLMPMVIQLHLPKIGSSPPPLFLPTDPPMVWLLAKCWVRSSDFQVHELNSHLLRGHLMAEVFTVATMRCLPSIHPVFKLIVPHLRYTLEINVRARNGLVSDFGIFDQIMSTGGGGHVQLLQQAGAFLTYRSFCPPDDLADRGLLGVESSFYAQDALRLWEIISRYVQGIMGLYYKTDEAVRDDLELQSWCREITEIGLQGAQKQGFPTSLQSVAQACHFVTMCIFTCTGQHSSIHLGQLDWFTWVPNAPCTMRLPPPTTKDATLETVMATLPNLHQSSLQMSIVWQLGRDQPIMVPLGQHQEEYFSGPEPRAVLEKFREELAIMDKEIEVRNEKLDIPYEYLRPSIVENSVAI
SMILES,IC50 [1],IC50 [2],IC50 (Substance-K receptor; cho),IC50 [3],Ki [3],IC50 [4],IC50 [5],Ki [5],IC50 [6],IC50 ([1]; read-out: IC50) [nM],Ki ([1]; read-out: Ki) [nM],IC50 (Substance-K receptor; read-out: IC50) [nM],Ki (Substance-K receptor; read-out: Ki) [nM]
COC(=O)Nc1nc2ccc(C(=O)c3ccccc3)cc2[nH]1 [MEBENDAZOLE],Not Active,Not Active,Not Active,Not Active,Not Active,Not Active,Not Active,Not Active,Not Active,,,,
CC(O)C(=O)O (stereo not given) [LACTIC ACID],Not Active,Not Active,Not Active,Not Active,Not Active,Not Active,Not Active,Not Active,Not Active,,,,
CC(N)C12CC3CC(CC(C3)C1)C2 (stereo not given) [RIMANTADINE],Not Active,Not Active,Not Active,Not Active,Not Active,Not Active,Not Active,Not Active,Not Active,,,,
CN1C[C@H](CNC(=O)OCc2ccccc2)C[C@@H]2c3cccc4c3c(cn4C)C[C@H]21 [METERGOLINE],,Not Active,,Not Active,Not Active,Not Active,Not Active,Not Active,Not Active,95,38,4070,1360
CO[C@@H]1[C@@H](OC)[C@H](C)[C@@](O)(CC(=O)O)O[C@H]1[C@H](C)[C@H]1O[C@@]2(CC[C@@](C)([C@H]3CC[C@@](C)([C@@H]4O[C@@H]([C@H]5O[C@](C)(O)[C@H](C)C[C@@H]5C)C[C@@H]4O[C@@H]4C[C@H](OC)[C@@H](OC)[C@H](C)O4)O3)O2)C[C@H](O)[C@H]1C.N [MADURAMICIN],Not Active,Not Active,Not Active,Not Active,Not Active,Not Active,Not Active,Not Active,Not Active,,,,
CCOC(=O)C1=C(C)NC(C)=C(C(=O)OCC)C1c1ccccc1/C=C/C(=O)OC(C)(C)C [LACIDIPINE],Not Active,Not Active,Not Active,Not Active,Not Active,Not Active,Not Active,Not Active,Not Active,,,,
CC(C)(C)NC[C@H](O)COc1cccc2c1CCCC2=O [LEVOBUNOLOL],Not Active,Not Active,Not Active,Not Active,Not Active,Not Active,Not Active,Not Active,Not Active,,,,
Cc1[nH]c(=O)c(C#N)cc1-c1ccncc1 [MILRINONE],Not Active,Not Active,Not Active,Not Active,Not Active,Not Active,Not Active,Not Active,Not Active,,,,
C1CCN2C[C@@H]3C[C@@H](CN4CCCC[C@@H]34)[C@H]2C1 [SPARTEINE],Not Active,Not Active,Not Active,Not Active,Not Active,Not Active,Not Active,Not Active,Not Active,,,,
Cc1cnc(NC(=O)C2=C(O)c3ccccc3S(=O)(=O)N2C)s1 [MELOXICAM],Not Active,Not Active,Not Active,Not Active,Not Active,Not Active,Not Active,Not Active,Not Active,,,,
CO[C@@]12[C@H](COC(N)=O)C3=C(C(=O)C(C)=C(N)C3=O)N1C[C@@H]1N[C@@H]12 [MITOMYCIN],Not Active,Not Active,Not Active,Not Active,Not Active,Not Active,Not Active,Not Active,Not Active,,,,
CC(Cl)(Cl)Cl [TRICHLOROETHANE],Not Active,Not Active,Not Active,Not Active,Not Active,Not Active,Not Active,Not Active,Not Active,,,,
